# Results published in ChEMBL document CHEMBL3124792, “Discovery and preclinical characterization of the cyclopropylindolobenzazepine BMS-791325, a potent allosteric inhibitor of the hepatitis C virus NS5B polymerase” (J Med Chem, 2014).
# System: not listed separately
# Experiment: Solubility of the compound in amorphous form in phosphate buffer at pH 6.5
# Assay type: physicochemical
# Settings: not given
row,SMILES,solubility
1,COc1ccc2c(c1)C1CC1(C(=O)N1CCN(C(C)=O)CC1)Cn1c-2c(C2CCCCC2)c2ccc(C(=O)NS(=O)(=O)N(C)C)cc21 (racemic),18 µg/mL
2,COc1ccc2c(c1)C1CC1(C(=O)N1CCN(C(=O)N(C)C)CC1)Cn1c-2c(C2CCCCC2)c2ccc(C(=O)NS(=O)(=O)N(C)C)cc21 (racemic),18 µg/mL
3,COc1ccc2c(c1)C1CC1(C(=O)N1C3CCC1CN(C)C3)Cn1c-2c(C2CCCCC2)c2ccc(C(=O)NS(=O)(=O)N(C)C)cc21 (racemic),44 µg/mL
4,COc1ccc2c(c1)C1CC1(C(=O)N1CC3CCC(C1)N3C)Cn1c-2c(C2CCCCC2)c2ccc(C(=O)NS(=O)(=O)N(C)C)cc21 (racemic),41 µg/mL
5,COc1ccc2c(c1)C1CC1(C(=O)N1C[C@@H](C)N[C@@H](C)C1)Cn1c-2c(C2CCCCC2)c2ccc(C(=O)NS(=O)(=O)N(C)C)cc21 (mixture of isomers),< 1 µg/mL

# System: not listed separately
# Experiment: Permeability of the compound at pH 7.4 by PAMPA
# Assay type: physicochemical
# Settings: read-out: permeability
row,SMILES,Papp
1,COc1ccc2c(c1)C1CC1(C(=O)N1CCN(C(C)=O)CC1)Cn1c-2c(C2CCCCC2)c2ccc(C(=O)NS(=O)(=O)N(C)C)cc21 (racemic),34 ×10⁻⁶ cm/s
2,COc1ccc2c(c1)C1CC1(C(=O)N1CCN(C(=O)N(C)C)CC1)Cn1c-2c(C2CCCCC2)c2ccc(C(=O)NS(=O)(=O)N(C)C)cc21 (racemic),43 ×10⁻⁶ cm/s
3,COc1ccc2c(c1)C1CC1(C(=O)N1C3CCC1CNC3)Cn1c-2c(C2CCCCC2)c2ccc(C(=O)NS(=O)(=O)N(C)C)cc21 (racemic),4 ×10⁻⁶ cm/s
4,COc1ccc2c(c1)C1CC1(C(=O)N1C3CCC1CN(C)C3)Cn1c-2c(C2CCCCC2)c2ccc(C(=O)NS(=O)(=O)N(C)C)cc21 (racemic),77 ×10⁻⁶ cm/s
5,COc1ccc2c(c1)C1CC1(C(=O)N1CC3CCC(C1)N3C)Cn1c-2c(C2CCCCC2)c2ccc(C(=O)NS(=O)(=O)N(C)C)cc21 (racemic),21 ×10⁻⁶ cm/s
6,COc1ccc2c(c1)C1CC1(C(=O)N1C[C@@H](C)N[C@@H](C)C1)Cn1c-2c(C2CCCCC2)c2ccc(C(=O)NS(=O)(=O)N(C)C)cc21 (mixture of isomers),14 ×10⁻⁶ cm/s

# Biological target: T1, PXR (NR1I2) (Homo sapiens, UniProt O75469)
# T1 sequence (O75469 whole entry): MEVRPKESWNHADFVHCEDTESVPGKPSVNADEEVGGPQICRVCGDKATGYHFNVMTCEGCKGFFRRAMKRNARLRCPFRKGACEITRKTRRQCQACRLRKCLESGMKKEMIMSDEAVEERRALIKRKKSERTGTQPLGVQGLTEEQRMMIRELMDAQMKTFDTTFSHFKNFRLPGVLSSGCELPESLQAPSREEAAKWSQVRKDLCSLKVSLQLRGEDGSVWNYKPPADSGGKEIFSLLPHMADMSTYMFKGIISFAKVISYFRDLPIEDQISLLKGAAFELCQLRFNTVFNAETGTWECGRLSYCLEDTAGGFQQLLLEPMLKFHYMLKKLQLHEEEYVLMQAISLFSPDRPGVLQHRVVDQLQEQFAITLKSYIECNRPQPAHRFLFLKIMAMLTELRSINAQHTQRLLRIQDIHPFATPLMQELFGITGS
# Experiment: Transactivation of human PXR expressed in human HepG2 cells by luciferase reporter gene assay relative to control
# Assay type: cell-based
# Settings: HepG2 cells expressing human PXR, read-out: %max
row,SMILES,Emax
1,COc1ccc2c(c1)C1CC1(C(=O)N1C3CCC1CNC3)Cn1c-2c(C2CCCCC2)c2ccc(C(=O)NS(=O)(=O)N(C)C)cc21 (racemic),31%
2,COc1ccc2c(c1)C1CC1(C(=O)N1C3CCC1CN(C)C3)Cn1c-2c(C2CCCCC2)c2ccc(C(=O)NS(=O)(=O)N(C)C)cc21 (racemic),21%
3,COc1ccc2c(c1)C1CC1(C(=O)N1CC3CCC(C1)N3C)Cn1c-2c(C2CCCCC2)c2ccc(C(=O)NS(=O)(=O)N(C)C)cc21 (racemic),29%

# Biological target: T2, Nuclear receptor subfamily 1 group I member 2 (Homo sapiens, UniProt O75469)
# T2 sequence (O75469 whole entry): T1 sequence (O75469 whole entry)
# Experiment: Transactivation of human PXR expressed in human HepG2 cells by luciferase reporter gene assay
# Assay type: cell-based
# Settings: not given
row,SMILES,EC50
1,COc1ccc2c(c1)C1CC1(C(=O)N1CCN(C(C)=O)CC1)Cn1c-2c(C2CCCCC2)c2ccc(C(=O)NS(=O)(=O)N(C)C)cc21 (racemic),> 50 µM
2,COc1ccc2c(c1)C1CC1(C(=O)N1CCN(C(=O)N(C)C)CC1)Cn1c-2c(C2CCCCC2)c2ccc(C(=O)NS(=O)(=O)N(C)C)cc21 (racemic),> 50 µM
3,COc1ccc2c(c1)C1CC1(C(=O)N1C3CCC1CNC3)Cn1c-2c(C2CCCCC2)c2ccc(C(=O)NS(=O)(=O)N(C)C)cc21 (racemic),9 µM
4,COc1ccc2c(c1)C1CC1(C(=O)N1CC3CCC(C1)N3C)Cn1c-2c(C2CCCCC2)c2ccc(C(=O)NS(=O)(=O)N(C)C)cc21 (racemic),3 µM
5,COc1ccc2c(c1)C1CC1(C(=O)N1C[C@@H](C)N[C@@H](C)C1)Cn1c-2c(C2CCCCC2)c2ccc(C(=O)NS(=O)(=O)N(C)C)cc21 (mixture of isomers),> 50 µM

# System: not listed separately
# Experiment: Cytotoxicity against human HuH7 cells by Alamar blue assay
# Assay type: cell-based
# Settings: Huh-7 cells
row,SMILES,CC50
1,COc1ccc2c(c1)C1CC1(C(=O)N1CCN(C(C)=O)CC1)Cn1c-2c(C2CCCCC2)c2ccc(C(=O)NS(=O)(=O)N(C)C)cc21 (racemic),> 10 µM
2,COc1ccc2c(c1)C1CC1(C(=O)N1CCN(C(=O)N(C)C)CC1)Cn1c-2c(C2CCCCC2)c2ccc(C(=O)NS(=O)(=O)N(C)C)cc21 (racemic),> 10 µM
3,COc1ccc2c(c1)C1CC1(C(=O)N1C3CCC1CNC3)Cn1c-2c(C2CCCCC2)c2ccc(C(=O)NS(=O)(=O)N(C)C)cc21 (racemic),> 10 µM
4,COc1ccc2c(c1)C1CC1(C(=O)N1C3CCC1CN(C)C3)Cn1c-2c(C2CCCCC2)c2ccc(C(=O)NS(=O)(=O)N(C)C)cc21 (racemic),> 10 µM
5,COc1ccc2c(c1)C1CC1(C(=O)N1CC3CCC(C1)N3C)Cn1c-2c(C2CCCCC2)c2ccc(C(=O)NS(=O)(=O)N(C)C)cc21 (racemic),> 16 µM
6,COc1ccc2c(c1)C1CC1(C(=O)N1C[C@@H](C)N[C@@H](C)C1)Cn1c-2c(C2CCCCC2)c2ccc(C(=O)NS(=O)(=O)N(C)C)cc21 (mixture of isomers),15 µM

# System: Hepatitis C virus
# Experiment: Antiviral activity against Hepatitis C virus Con1 genotype 1b infected in human HuH7 cells after 3 days by FRET assay in presence of 40% human serum
# Assay type: functional, organism-based, Hepacivirus hominis
# Settings: isolate Con1, Huh-7, 72 h
row,SMILES,EC50
1,COc1ccc2c(c1)C1CC1(C(=O)N1CCN(C(C)=O)CC1)Cn1c-2c(C2CCCCC2)c2ccc(C(=O)NS(=O)(=O)N(C)C)cc21 (racemic),89 nM
2,COc1ccc2c(c1)C1CC1(C(=O)N1CCN(C(=O)N(C)C)CC1)Cn1c-2c(C2CCCCC2)c2ccc(C(=O)NS(=O)(=O)N(C)C)cc21 (racemic),59 nM
3,COc1ccc2c(c1)C1CC1(C(=O)N1C3CCC1CN(C)C3)Cn1c-2c(C2CCCCC2)c2ccc(C(=O)NS(=O)(=O)N(C)C)cc21 (racemic),45 nM
4,COc1ccc2c(c1)C1CC1(C(=O)N1CC3CCC(C1)N3C)Cn1c-2c(C2CCCCC2)c2ccc(C(=O)NS(=O)(=O)N(C)C)cc21 (racemic),153 nM
5,COc1ccc2c(c1)C1CC1(C(=O)N1C[C@@H](C)N[C@@H](C)C1)Cn1c-2c(C2CCCCC2)c2ccc(C(=O)NS(=O)(=O)N(C)C)cc21 (mixture of isomers),55 nM

# System: Hepatitis C virus
# Experiment: Antiviral activity against Hepatitis C virus H77c genotype 1a infected in human HuH7 cells after 3 days by FRET assay
# Assay type: functional, organism-based, Hepacivirus hominis
# Settings: genotype 1a H77, Huh-7, 72 h
row,SMILES,EC50
1,COc1ccc2c(c1)C1CC1(C(=O)N1CCN(C(C)=O)CC1)Cn1c-2c(C2CCCCC2)c2ccc(C(=O)NS(=O)(=O)N(C)C)cc21 (racemic),45 nM
2,COc1ccc2c(c1)C1CC1(C(=O)N1CCN(C(=O)N(C)C)CC1)Cn1c-2c(C2CCCCC2)c2ccc(C(=O)NS(=O)(=O)N(C)C)cc21 (racemic),23 nM
3,COc1ccc2c(c1)C1CC1(C(=O)N1C3CCC1CNC3)Cn1c-2c(C2CCCCC2)c2ccc(C(=O)NS(=O)(=O)N(C)C)cc21 (racemic),14 nM
4,COc1ccc2c(c1)C1CC1(C(=O)N1C3CCC1CN(C)C3)Cn1c-2c(C2CCCCC2)c2ccc(C(=O)NS(=O)(=O)N(C)C)cc21 (racemic),5 nM
5,COc1ccc2c(c1)C1CC1(C(=O)N1CC3CCC(C1)N3C)Cn1c-2c(C2CCCCC2)c2ccc(C(=O)NS(=O)(=O)N(C)C)cc21 (racemic),16 nM
6,COc1ccc2c(c1)C1CC1(C(=O)N1C[C@@H](C)N[C@@H](C)C1)Cn1c-2c(C2CCCCC2)c2ccc(C(=O)NS(=O)(=O)N(C)C)cc21 (mixture of isomers),21 nM

# System: Hepatitis C virus
# Experiment: Antiviral activity against Hepatitis C virus Con1 genotype 1b infected in human HuH7 cells after 3 days by FRET assay
# Assay type: functional, organism-based, Hepacivirus hominis
# Settings: isolate Con1, Huh-7, 72 h
row,SMILES,EC50
1,COc1ccc2c(c1)C1CC1(C(=O)N1CCN(C(C)=O)CC1)Cn1c-2c(C2CCCCC2)c2ccc(C(=O)NS(=O)(=O)N(C)C)cc21 (racemic),98 nM
2,COc1ccc2c(c1)C1CC1(C(=O)N1CCN(C(=O)N(C)C)CC1)Cn1c-2c(C2CCCCC2)c2ccc(C(=O)NS(=O)(=O)N(C)C)cc21 (racemic),54 nM
3,COc1ccc2c(c1)C1CC1(C(=O)N1C3CCC1CNC3)Cn1c-2c(C2CCCCC2)c2ccc(C(=O)NS(=O)(=O)N(C)C)cc21 (racemic),32 nM
4,COc1ccc2c(c1)C1CC1(C(=O)N1C3CCC1CN(C)C3)Cn1c-2c(C2CCCCC2)c2ccc(C(=O)NS(=O)(=O)N(C)C)cc21 (racemic),13 nM
5,COc1ccc2c(c1)C1CC1(C(=O)N1CC3CCC(C1)N3C)Cn1c-2c(C2CCCCC2)c2ccc(C(=O)NS(=O)(=O)N(C)C)cc21 (racemic),39 nM
6,COc1ccc2c(c1)C1CC1(C(=O)N1C[C@@H](C)N[C@@H](C)C1)Cn1c-2c(C2CCCCC2)c2ccc(C(=O)NS(=O)(=O)N(C)C)cc21 (mixture of isomers),29 nM

# System: Liver microsome
# Settings: human, microsomes
row,SMILES,Stability
1,COc1ccc2c(c1)C1CC1(C(=O)N1CCN(C(C)=O)CC1)Cn1c-2c(C2CCCCC2)c2ccc(C(=O)NS(=O)(=O)N(C)C)cc21 (racemic),93%
2,COc1ccc2c(c1)C1CC1(C(=O)N1CCN(C(=O)N(C)C)CC1)Cn1c-2c(C2CCCCC2)c2ccc(C(=O)NS(=O)(=O)N(C)C)cc21 (racemic),64%
3,COc1ccc2c(c1)C1CC1(C(=O)N1C3CCC1CNC3)Cn1c-2c(C2CCCCC2)c2ccc(C(=O)NS(=O)(=O)N(C)C)cc21 (racemic),96%
4,COc1ccc2c(c1)C1CC1(C(=O)N1C3CCC1CN(C)C3)Cn1c-2c(C2CCCCC2)c2ccc(C(=O)NS(=O)(=O)N(C)C)cc21 (racemic),90%
5,COc1ccc2c(c1)C1CC1(C(=O)N1CC3CCC(C1)N3C)Cn1c-2c(C2CCCCC2)c2ccc(C(=O)NS(=O)(=O)N(C)C)cc21 (racemic),100%
6,COc1ccc2c(c1)C1CC1(C(=O)N1C[C@@H](C)N[C@@H](C)C1)Cn1c-2c(C2CCCCC2)c2ccc(C(=O)NS(=O)(=O)N(C)C)cc21 (mixture of isomers),91%

# System: Liver microsome
# Settings: rat, microsomes
row,SMILES,Stability
1,COc1ccc2c(c1)C1CC1(C(=O)N1CCN(C(C)=O)CC1)Cn1c-2c(C2CCCCC2)c2ccc(C(=O)NS(=O)(=O)N(C)C)cc21 (racemic),100%
2,COc1ccc2c(c1)C1CC1(C(=O)N1CCN(C(=O)N(C)C)CC1)Cn1c-2c(C2CCCCC2)c2ccc(C(=O)NS(=O)(=O)N(C)C)cc21 (racemic),93%
3,COc1ccc2c(c1)C1CC1(C(=O)N1C3CCC1CNC3)Cn1c-2c(C2CCCCC2)c2ccc(C(=O)NS(=O)(=O)N(C)C)cc21 (racemic),100%
4,COc1ccc2c(c1)C1CC1(C(=O)N1C3CCC1CN(C)C3)Cn1c-2c(C2CCCCC2)c2ccc(C(=O)NS(=O)(=O)N(C)C)cc21 (racemic),100%
5,COc1ccc2c(c1)C1CC1(C(=O)N1CC3CCC(C1)N3C)Cn1c-2c(C2CCCCC2)c2ccc(C(=O)NS(=O)(=O)N(C)C)cc21 (racemic),100%
6,COc1ccc2c(c1)C1CC1(C(=O)N1C[C@@H](C)N[C@@H](C)C1)Cn1c-2c(C2CCCCC2)c2ccc(C(=O)NS(=O)(=O)N(C)C)cc21 (mixture of isomers),100%
